The values that follow come from patent US11266624B2, “CRM1 inhibitors reduce primary and acquired resistance of EGFR inhibitors in lung cancer cells” (Texas Tech University System, priority 2018, dated 2022).

Structures are written as SMILES. Read-outs that look alike come from different tables or passages of the source. Marks after values point to notes of the source that are not given here.

The test system of data set [1] is A549. Particulars: A549, KRAS-mutant NSCLC cell line; cited from earlier work.
For data set [2], the system named is snail-transduced primary human mammary epithelial cells (HEMCs). Particulars: 24-72 hrs treatment; cited from earlier work.
Data set [3] concerns NSCLC cells. The conditions noted are these: cited from earlier work.
Data set [4] deals with NSCLC cells. Particulars: cited from earlier work. This is another data set of the same source.
Data set [5] concerns A549GLR. As to the kind of experiment: cells. The text has this: (§1) Cell lines and reagents. The NSCLC cell lines A549 and H460 were purchased from American Type Culture Collection (ATCC).
(§2) Cell viability assay. […] Experiments were repeated independently three times.
(§3) Statistical analyses. […] One-way ANOVA was used to determine the difference in the analytical results of flow cytometry, qRT-PCR, Western bot, wound healing assay, anchorage-independent growth assay, transwell invasion assay, and Bio-Plex multiplex immunoassay among groups followed by a Fisher's LSD test. Differences with p<0.05 were considered statistically significant.

Data set [6] deals with A549GR. As to the kind of experiment: cells.
Text: as §1, §2, §3

Data set [7] concerns A549. As to the kind of experiment: cells.
Text: as §1, §2, §3

Data set [8] deals with H460. As to the kind of experiment: MTT cell viability assay in H460. The conditions noted are these: 0.5 nM LMB.
Text: as §1, §2, §3

For data set [9], the system named is A549. As to the kind of experiment: Analysis of cell cycle by flow cytometry in A549. The format is cell-based, human. The conditions noted are these: 48 hrs. From the text: Analysis of cell cycle by flow cytometry. […] Each sample was run in triplicate and each experiment was repeated three times.
A general note: A flow cytometer gives signals particle by particle.

In data set [10] the test system is A549. As to the kind of experiment: Western blot of EGFR signaling and survival pathways in A549. It counts as cell-based, human. Here is the method: Western blot analyses. […] Relative densitometric digital analysis for bands of targeted proteins was determined using Image J and normalized by the intensity of the housekeeping gene, α-tubulin.
(In western blotting, separated proteins are transferred to a membrane and probed.)

In data set [11] the test system is A549. Particulars: A549 (p53 wide type), 48 hrs; read-out: LMB IC50; cited from earlier work.
Data set [12] has as its system H522. Particulars: H522 (p53-mutant); read-out: LMB IC50; cited from earlier work.
For data set [13], the system named is H358. Particulars: H358 (p53 null); read-out: LMB IC50; cited from earlier work.
For data set [14] the following is noted: single therapeutic agent; cited from earlier work.
Data set [15] has as its system NSCLC cell lines (A549, H522, and H358) and BEAS-2B. Particulars: A549, H522, H358 vs BEAS-2B; cited from earlier work.
Setting [16] is: 12 μM gefitinib (alone or + 0.5 nM LMB).
Where [17] appears, read: 24 μM gefitinib (alone or + 0.5 nM LMB).
Setting [18] is: Homo sapiens, A549, read-out: IC50 of afatinib.

Consider `O=C(/C=C\n1cnc(-c2cc(C(F)(F)F)cc(C(F)(F)F)c2)n1)NNc1cnccn1` [KPT-330, Selinexor], for which the “Response of A549 to treatment” value in data set [1] is “not responsive”. Also, in data set [2], the “Effect on EMT” value is reported as “reverse EMT”.
Take `COc1cc(-c2ncn(/C=C\C(=O)OC(C)C)n2)cc(C(F)(F)F)c1` [KPT-185]: the “Synergistic cytotoxic effects with EGFR TKIs” value in data set [3] is reported as “no synergistic cytotoxic effects”. The Cell cycle arrest entry in data set [4] is “arrested NSCLC cells in the G1 phase”. Also, the “Response of A549 to treatment” value in data set [1] is on record as “not responsive”. In data set [2], the “Effect on EMT” value is given as “reverse EMT”.
As a reminder, the IC50 is the concentration that gives 50% inhibition. `CCC(=C/[C@H](C)C/C=C/C(C)=C/[C@@H](C)C(=O)[C@@H](C)[C@H](O)[C@@H](C)C/C(C)=C/C(=O)O)/C=C/[C@@H]1OC(=O)C=C[C@@H]1C` [LMB, Leptomycin B]: the “Cytotoxic effect (cell viability)” value in data set [5] is recorded as 88±5 % of control; in data set [6], 96±3 % of control; in data set [7] it was 89±4 % of control; in [8], 92±5 % of control. Further, the “Cell cycle (%) G0/G1” value in data set [9] (0.5 nM LMB alone) was 57.9 ± 3.1 ^b %. Also, the “Cell cycle (%) G2/M” value in data set [9] (0.5 nM LMB alone) is given as 24.4 ± 0.6 ^b %. Besides, the “Cell cycle (%) Pre-G1” value in data set [9] (0.5 nM LMB alone) was 13.5 ± 2.7 ^b %. Further, the “Cell cycle (%) S” value in data set [9] (0.5 nM LMB alone) is recorded as 3.6 ± 1.2 ^b %. In addition, the “Relative protein expression level of Akt” value in data set [10] (0.5 nM LMB alone, 48 hrs, A549, control 100.0±0) was found to be 86±2. In addition, the p21 expression result in [10] (A549, 48 hrs, LMB vs control, gefitinib+LMB vs gefitinib alone) was “dramatically increased”. Besides, the IC50 was 0.0131 µM in data set [11], 0.0057 µM in data set [12] and 0.0005 µM in data set [13]. Further, in data set [14], the “Toxicities in phase I trial” value was “gastrointestinal toxicities like malaise and anorexia”. Further, in data set [2], the “Effect on EMT” value is listed as “reverse EMT”. In addition, the “Cell growth inhibition, cancer vs normal cells” value in data set [15] is “remarkable cell growth inhibition in NSCLC cell lines (A549, H522, and H358) but not normal human lung epithelial cells (BEAS-2B)”.
As to `COc1cc2ncnc(Nc3ccc(F)c(Cl)c3)c2cc1OCCCN1CCOCC1` [gefitinib], in data set [9] (setting [16]), the “Cell cycle (%) G0/G1” value is on record as 68.0 ± 2.9 ^a %, the “Cell cycle (%) G2/M” value was 19.9 ± 2.2 ^a %, the “Cell cycle (%) Pre-G1” value was 2.1 ± 0.4 ^a % and the “Cell cycle (%) S” value is on record as 9.7 ± 2.4 ^a %. Also, in data set [9] (setting [17]), the “Cell cycle (%) G0/G1” value is given as 84.0 ± 0.9 ^b %, the “Cell cycle (%) G2/M” value is 7.9 ± 0.6 ^b %, the “Cell cycle (%) Pre-G1” value was 4.0 ± 1.3 ^b % and the “Cell cycle (%) S” value is recorded as 3.4 ± 0.3 ^b %.
On to `CN(C)C/C=C/C(=O)Nc1cc2c(Nc3ccc(F)c(Cl)c3)ncnc2cc1O[C@H]1CCOC1` [afatinib], for which the half-maximal inhibitory concentration (IC50) in [5] (setting [18]) is 8 ± 1.5 µM; in data set [6] (setting [18]), 20 ± 2.7 µM; in data set [7] (setting [18]) it was 6 ± 1.2 µM.
